How the values were obtained:
Cholesterol in serum = assay: Serum cholesterol lowering activity in rats on high-fat feed, single oral dose; assay type: in vivo, Wister-Imamich strain male rats; conditions: rat, 75 mg/kg oral, 6 hours after administration
Text: The cholesterol lowering activity of the ascochlorin derivatives of this invention was observed by the use of Wister-Imamich strain male rats weighing 230 ± 30 g which had been bred with the use of high-fat feed comprising 1000 g of powdery chow CLEA CE-2 (sold by NIHON CLEA KABUSHIKI KAISHA) admixed with 10 g of cholesterol, 95 g of hydrogenated coconut oil, 2 g of cholic acid, 150 g of milk casein and 671 g of sucrose.
The rats were divided into groups of five members each, and orally administered with a different ascochlorin derivative as a suspension in gum arabic aqueous solution in a dose of 75 mg/kg.body weight. The rats were kept from eating food, and 6 hours after the administration, the blood of each rat was sampled from its heart. The total amount of cholesterol in serum was determined by a modified Zurkowski method (Clinical Chemistry, 10, 451, 1964) with the use of a colorimeter for blood analysis (sold by KYOTO DAIICHI KAGAKU).

Serum Lipid = assay: Hypolipidemic activity: change in level of serum lipid, 30 days, high-fat feed; assay type: in vivo, Wister strain rats; conditions: rat; for Serum Cholesterol / Serum Free fatty acid / Serum Phospholipid / Serum Triglyceride / Serum β-Lipoprotein: average ± standard error
Lipid in liver and aorta = assay: Hypolipidemic activity: change of lipid level in organs and aorta abdominalis, 30 days, high-fat feed; assay type: in vivo, Wister strain rats; set-up: Cholesterol in Tunica intima of aorta abdominalis: unit not given here; conditions: rat; for Cholesterol in Liver / Cholesterol in Tunica intima of aorta abdominalis / Phospholipid in Liver / Triglyceride in Liver: average ± standard error
Protocol: Wister strain rats weighing 150 ± 20 g were divided into groups of 10 members each and bred with high-fat feed, the same as that used in Example 1. The rats were orally administered ascochlorin, 4-O-methylascochlorin or ethyl-α-(p-chlorophenoxy) isobutylate in a predetermined dose every morning for 30 days. Six hours after the last administration, liver and aorta of each rat were taken out and lipid level in the organs of each of the rats were determined. Lipid present in the liver and aorta was extracted with methanol-chloroform (1:1) by allowing it to stand overnight and the extract was assayed as to lipid level.

blood platelet = assay: Aggregation inhibition activity of blood platelet (ADP-induced, platelet rich plasma of orally dosed rats); assay type: in vivo, Wister-Imamich strain male rats; conditions: rat, 20 mg/kg oral, 6 hours; adenosine-5'-diphosphate 10^-5 M in platelet rich plasma
Protocol: In this Example Wister-Imamich strain male rats weighing 230 ± 30 g which had been bred with the use of a commercial chow, CLEA CE-2 were used.
The rats were divided into groups of five members each, and orally administered with a different ascochlorin derivative as a suspension in 2% gum arabic aqueous solution in a dose of 20 mg/kg.body weight. Six hours after the administration, the blood of each rat was sampled from the heart and after the addition of citric acid, the blood sample was centrifuged at 1,500 r.p.m. for 10 minutes to obtain platelet rich plasma. The anti-aggregation effect when the concentration of adenosine-5'-diphosphatein the platelet rich plasma is ultimately 10^^-5 M is shown in Table II.
As positive controls, ascochlorin, ethyl-α-(p-chlorophenoxy) isobutylate and acetyl salicyclic acid were used. The aggregation inhibition ratio was evaluated in percent by comparing the increase of transmission rate caused by the addition of adenosin-5'-diphosphate to platelet rich plasma of the control group (no medication) with that caused on the groups administered with an ascochlorin derivative which is calculated for 100.

arteriosclerosis = assay: Treatment of arteriosclerosis in human beings, oral administration; assay type: in vivo; conditions: 50 mg dose after every meal, study not completed
Text: In order to treat arteriosclerosis by the use of the composition prepared according to the present invention, mammals and poultry are orally administered with the pharmaceutical composition prepared according to the present invention once or more a day. Especially, for human beings, it is preferable to administer the composition three times per day, after every meal. For animals other than human beings, the composition may be administered alone or by mixing it with feed. As stated above, the dose of the composition depends on the kind of animals to which it is to be administered and on the form of the composition. However, the dose ranges generally 0.05-500, preferably 0.5-50 mg/kg.body weight per day based on the ascochlorin derivative.

Acute toxicity, rabbit = assay: Acute toxicity, rabbit; set-up: species or system Japanese native male rabbits; conditions: in vivo, male, oral
Text: (§1) Acute toxicity of the ascochlorin derivatives was observed by the use of Wister-Imamichi strain male rats weighing 230 ± 30 g and ddY strain male and female mice (5 weeks old) weighing 20 ±3 g which were divided into groups of 10 members each. Japanese native male rabbits weighing 2 kg ± 300 g which were divided into groups of five members each were also used. The test animals were orally or intraperitoneally administered with a different ascochlorin derivative as a suspension in 5% gum arabic aqueous solution, and the toxicity was compared with that of control in which ascochlorin was used.

Acute toxicity, rat = conditions: in vivo, male
Text: as §1

Acute toxicity, mouse = conditions: in vivo
Text: as §1

**Q.** With `COc1c(Cl)c(C)c(C=O)c(O)c1C/C=C(C)/C=C/C1(C)C(C)CCC(=O)C1C` (stereo not drawn) [4-O-methylascochlorin] as the molecule, how does the Cholesterol in serum (Cholesterol in serum) read?
**A.** 76.6 mg/dL

**Q.** What about the “Serum Cholesterol, increasing or reducing ratio based on the control” value (Serum Lipid; 2.25 mg/kg oral) of the same molecule?
**A.** -4.2

**Q.** What about the “Serum Free fatty acid, increasing or reducing ratio based on the control” value (Serum Lipid; 2.25 mg/kg oral) of the same molecule?
**A.** -2.4

**Q.** What about the “Serum Phospholipid, increasing or reducing ratio based on the control” value (Serum Lipid; 2.25 mg/kg oral) of the same molecule?
**A.** -12.2

**Q.** And the “Serum Triglyceride, increasing or reducing ratio based on the control” value (Serum Lipid; 2.25 mg/kg oral)?
**A.** -6.8

**Q.** And the “Serum β-Lipoprotein, increasing or reducing ratio based on the control” value (Serum Lipid; 2.25 mg/kg oral)?
**A.** +7.3

**Q.** What about the “Serum Cholesterol” value (Serum Lipid; 2.25 mg/kg oral) of the same molecule?
**A.** 102.4 ± 13.8 mg/dL

**Q.** And the “Serum Free fatty acid” value (Serum Lipid; 2.25 mg/kg oral)?
**A.** 49.1±8.2 μ eq./dl

**Q.** What about the “Serum Phospholipid” value (Serum Lipid; 2.25 mg/kg oral) of the same molecule?
**A.** 119.7 ± 12.5 mg/dL

**Q.** What about the “Serum Triglyceride” value (Serum Lipid; 2.25 mg/kg oral) of the same molecule?
**A.** 74.5 ± 9.8 mg/dL

**Q.** What about the “Serum β-Lipoprotein” value (Serum Lipid; 2.25 mg/kg oral) of the same molecule?
**A.** 819 ± 109 mg/dL

**Q.** And the “levels of all types of lipids” value (Serum Lipid; 9 mg/kg or more, oral)?
**A.** extremely lowered

**Q.** And the “Serum Cholesterol, increasing or reducing ratio based on the control” value (Serum Lipid; 9.0 mg/kg oral)?
**A.** -18.6

**Q.** And the “Serum Free fatty acid, increasing or reducing ratio based on the control” value (Serum Lipid; 9.0 mg/kg oral)?
**A.** -10.4

**Q.** What about the “Serum Phospholipid, increasing or reducing ratio based on the control” value (Serum Lipid; 9.0 mg/kg oral) of the same molecule?
**A.** -13.2

**Q.** What about the “Serum Triglyceride, increasing or reducing ratio based on the control” value (Serum Lipid; 9.0 mg/kg oral) of the same molecule?
**A.** -19.0

**Q.** And the “Serum β-Lipoprotein, increasing or reducing ratio based on the control” value (Serum Lipid; 9.0 mg/kg oral)?
**A.** -22.3

**Q.** And the “Serum Cholesterol” value (Serum Lipid; 9.0 mg/kg oral)?
**A.** 87.0 ± 4.9 mg/dL

**Q.** And the “Serum Free fatty acid” value (Serum Lipid; 9.0 mg/kg oral)?
**A.** 44.8±3.5 μ eq./dl

**Q.** What about the “Serum Phospholipid” value (Serum Lipid; 9.0 mg/kg oral) of the same molecule?
**A.** 118.4 ± 5.8 mg/dL

**Q.** What about the “Serum Triglyceride” value (Serum Lipid; 9.0 mg/kg oral) of the same molecule?
**A.** 64.8 ± 5.2 mg/dL

**Q.** And the “Serum β-Lipoprotein” value (Serum Lipid; 9.0 mg/kg oral)?
**A.** 593 ± 85 mg/dL

**Q.** And the “Serum Cholesterol, increasing or reducing ratio based on the control” value (Serum Lipid; 22.5 mg/kg oral)?
**A.** -16.9

**Q.** And the “Serum Free fatty acid, increasing or reducing ratio based on the control” value (Serum Lipid; 22.5 mg/kg oral)?
**A.** -16.3

**Q.** What about the “Serum Phospholipid, increasing or reducing ratio based on the control” value (Serum Lipid; 22.5 mg/kg oral) of the same molecule?
**A.** -13.5

**Q.** What about the “Serum Triglyceride, increasing or reducing ratio based on the control” value (Serum Lipid; 22.5 mg/kg oral) of the same molecule?
**A.** -20.5

**Q.** What about the “Serum β-Lipoprotein, increasing or reducing ratio based on the control” value (Serum Lipid; 22.5 mg/kg oral) of the same molecule?
**A.** -22.8

**Q.** And the “Serum Cholesterol” value (Serum Lipid; 22.5 mg/kg oral)?
**A.** 88.8 ± 9.1 mg/dL

**Q.** And the “Serum Free fatty acid” value (Serum Lipid; 22.5 mg/kg oral)?
**A.** 42.1±2.7 μ eq./dl

**Q.** And the “Serum Phospholipid” value (Serum Lipid; 22.5 mg/kg oral)?
**A.** 117.9 ± 6.5 mg/dL

**Q.** And the “Serum Triglyceride” value (Serum Lipid; 22.5 mg/kg oral)?
**A.** 63.6 ± 4.6 mg/dL

**Q.** What about the “Serum β-Lipoprotein” value (Serum Lipid; 22.5 mg/kg oral) of the same molecule?
**A.** 589 ± 133 mg/dL

**Q.** What about the “Cholesterol in Liver, increasing or reducing ratio based on the control” value (Lipid in liver and aorta; 2.25 mg/kg oral) of the same molecule?
**A.** +12.9

**Q.** What about the “Cholesterol in Tunica intima of aorta abdominalis, increasing or reducing ratio based on the control” value (Lipid in liver and aorta; 2.25 mg/kg oral) of the same molecule?
**A.** -8.1

**Q.** What about the “Phospholipid in Liver, increasing or reducing ratio based on the control” value (Lipid in liver and aorta; 2.25 mg/kg oral) of the same molecule?
**A.** +2.6

**Q.** What about the “Triglyceride in Liver, increasing or reducing ratio based on the control” value (Lipid in liver and aorta; 2.25 mg/kg oral) of the same molecule?
**A.** -23.6

**Q.** And the “Cholesterol in Liver” value (Lipid in liver and aorta; 2.25 mg/kg oral)?
**A.** 38.4 ± 6.4 mg/g

**Q.** What about the “Cholesterol in Tunica intima of aorta abdominalis” value (Lipid in liver and aorta; 2.25 mg/kg oral) of the same molecule?
**A.** 18.2±1.4

**Q.** And the “Phospholipid in Liver” value (Lipid in liver and aorta; 2.25 mg/kg oral)?
**A.** 72.0 ± 5.3 mg/g

**Q.** What about the “Triglyceride in Liver” value (Lipid in liver and aorta; 2.25 mg/kg oral) of the same molecule?
**A.** 16.7 ± 1.3 mg/g

**Q.** And the “amount of lipids in liver and cholesterol in aorta” value (Lipid in liver and aorta; 9 mg/kg or more, oral)?
**A.** remarkably reduced

**Q.** What about the “Cholesterol in Liver, increasing or reducing ratio based on the control” value (Lipid in liver and aorta; 9.0 mg/kg oral) of the same molecule?
**A.** -15.0

**Q.** What about the “Cholesterol in Tunica intima of aorta abdominalis, increasing or reducing ratio based on the control” value (Lipid in liver and aorta; 9.0 mg/kg oral) of the same molecule?
**A.** -29.3

**Q.** And the “Phospholipid in Liver, increasing or reducing ratio based on the control” value (Lipid in liver and aorta; 9.0 mg/kg oral)?
**A.** -1.6

**Q.** What about the “Triglyceride in Liver, increasing or reducing ratio based on the control” value (Lipid in liver and aorta; 9.0 mg/kg oral) of the same molecule?
**A.** -21.1

**Q.** What about the “Cholesterol in Liver” value (Lipid in liver and aorta; 9.0 mg/kg oral) of the same molecule?
**A.** 28.9 ± 3.6 mg/g

**Q.** What about the “Cholesterol in Tunica intima of aorta abdominalis” value (Lipid in liver and aorta; 9.0 mg/kg oral) of the same molecule?
**A.** 14.0±0.3

**Q.** And the “Phospholipid in Liver” value (Lipid in liver and aorta; 9.0 mg/kg oral)?
**A.** 69.1 ± 9.9 mg/g

**Q.** What about the “Triglyceride in Liver” value (Lipid in liver and aorta; 9.0 mg/kg oral) of the same molecule?
**A.** 17.2 ± 2.8 mg/g

**Q.** And the “Cholesterol in Liver, increasing or reducing ratio based on the control” value (Lipid in liver and aorta; 22.5 mg/kg oral)?
**A.** -21.8

**Q.** What about the “Cholesterol in Tunica intima of aorta abdominalis, increasing or reducing ratio based on the control” value (Lipid in liver and aorta; 22.5 mg/kg oral) of the same molecule?
**A.** -32.8

**Q.** And the “Phospholipid in Liver, increasing or reducing ratio based on the control” value (Lipid in liver and aorta; 22.5 mg/kg oral)?
**A.** -12.0

**Q.** What about the “Triglyceride in Liver, increasing or reducing ratio based on the control” value (Lipid in liver and aorta; 22.5 mg/kg oral) of the same molecule?
**A.** -22.1

**Q.** And the “Cholesterol in Liver” value (Lipid in liver and aorta; 22.5 mg/kg oral)?
**A.** 26.6 ± 2.2 mg/g

**Q.** What about the “Cholesterol in Tunica intima of aorta abdominalis” value (Lipid in liver and aorta; 22.5 mg/kg oral) of the same molecule?
**A.** 13.3±0.4

**Q.** And the “Phospholipid in Liver” value (Lipid in liver and aorta; 22.5 mg/kg oral)?
**A.** 61.8 ± 4.3 mg/g

**Q.** And the “Triglyceride in Liver” value (Lipid in liver and aorta; 22.5 mg/kg oral)?
**A.** 17.0 ± 0.7 mg/g

**Q.** And the “Aggregation Inhibition Ratio” value (blood platelet)?
**A.** 70.5%

**Q.** What about the “effect in human beings” value (arteriosclerosis) of the same molecule?
**A.** satisfactory effect

**Q.** And the LD50 (Acute toxicity, rabbit)?
**A.** > 2000 mg/kg

**Q.** And the LD50 (Acute toxicity, rat; ip)?
**A.** 3100 mg/kg

**Q.** And the LD50 (Acute toxicity, rat; oral)?
**A.** > 10000 mg/kg

**Q.** And the LD50 (Acute toxicity, mouse; ip, female)?
**A.** 5500 mg/kg

**Q.** And the LD50 (Acute toxicity, mouse; ip, male)?
**A.** 5000 mg/kg

**Q.** And the LD50 (Acute toxicity, mouse; po, female)?
**A.** > 7300 mg/kg

**Q.** What about the LD50 (Acute toxicity, mouse; po, male) of the same molecule?
**A.** > 7300 mg/kg

Reference: patent US3995061A, “Pharmaceutical composition and method of using the same” (Chugai Seiyaku Kabushiki Kaisha, priority 1974, dated 1976)
